According to US10052320B2, “Substituted quinoxalines as FGFR kinase inhibitors” (ASTEX THERAPEUTICS LIMITED, priority 2011, dated 2018):

Legend:
FGFR1 (h) = FGFR1 (h) (Homo sapiens, UniProt P11362); assay: FGFR1 (enzymatic assay), TR-FRET; assay type: biochemical; conditions: read-out: FGFR 1 pIC50 (converted)
Method: In a final reaction volume of 30 μL, FGFR1 (h) (25 ng/ml) was incubated with 50 mM HEPES pH 7.5, 6 mM MnCl2, 1 mM DTT, 0.1 mM Na3VO4, 0.01% Triton-X-100, 500 nM Btn-Flt3 and 5 μM ATP in the presence of compound (1% DMSO final). […] Time-Resolved Fluorescence Resonance Energy Transfer (TR-FRET) signal (ex340 nm. Em 620 nm, em 655 nm) was measured afterwards and results are expressed in RFU (Relative Fluorescence Units).

[1] = system: Ba/F3-FGFR1-transfected cells in the presence of 10 ng/ml murine IL3; assay: Ba/F3-FGFR1 (plus IL3) cellular proliferation counterscreen, Alamar Blue; assay type: cell-based; conditions: Mus musculus; plus IL3, 384 well; read-out: BAF3-FGFR 1 (PLUS IL3) 384 well pIC50 (converted)
Procedure, shortened: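 Readout: resazurin reduction, RFU at ex 540 nm/em 590 nm, measured after 4 h with Alamar Blue. This follows 24 h compound treatment (DMSO dilutions) at 37 °C, 5% CO2 in phenol red-free RPMI-1640 plus 10% FBS, at 20000 or 10000 cells/well depending on format.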

[2] = target: Ba/F3-FGFR3-transfected cells (Homo sapiens, UniProt P22607); assay: Ba/F3-FGFR3 (minus IL3) cellular proliferation assay, Alamar Blue; assay type: cell-based; conditions: minus IL3, 384 well
Ba/F3-FGFR3-transfected cells, sequence (P22607 whole entry, change not shown): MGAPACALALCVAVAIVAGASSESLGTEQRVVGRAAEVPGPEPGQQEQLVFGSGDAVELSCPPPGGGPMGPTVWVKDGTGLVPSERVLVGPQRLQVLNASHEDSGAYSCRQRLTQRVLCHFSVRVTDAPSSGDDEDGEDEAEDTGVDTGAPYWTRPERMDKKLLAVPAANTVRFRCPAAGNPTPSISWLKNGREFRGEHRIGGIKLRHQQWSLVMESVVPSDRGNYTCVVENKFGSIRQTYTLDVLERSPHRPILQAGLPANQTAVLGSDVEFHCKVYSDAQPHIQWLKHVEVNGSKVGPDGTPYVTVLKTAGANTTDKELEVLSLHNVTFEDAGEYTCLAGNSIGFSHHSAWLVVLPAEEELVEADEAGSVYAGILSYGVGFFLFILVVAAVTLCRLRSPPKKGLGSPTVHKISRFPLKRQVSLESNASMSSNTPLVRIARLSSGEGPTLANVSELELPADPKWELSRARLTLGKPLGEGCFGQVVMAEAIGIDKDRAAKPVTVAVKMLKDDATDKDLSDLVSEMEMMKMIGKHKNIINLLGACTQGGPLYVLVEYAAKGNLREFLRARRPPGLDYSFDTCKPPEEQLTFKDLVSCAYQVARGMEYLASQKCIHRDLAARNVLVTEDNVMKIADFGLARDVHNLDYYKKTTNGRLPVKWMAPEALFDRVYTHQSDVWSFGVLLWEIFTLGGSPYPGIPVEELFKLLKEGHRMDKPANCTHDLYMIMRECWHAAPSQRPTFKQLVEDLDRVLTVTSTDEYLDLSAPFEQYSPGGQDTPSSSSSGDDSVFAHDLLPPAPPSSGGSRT
Procedure, shortened: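 Proliferation read-out: Alamar Blue fluorescence (ex 540, em 590 nm) after 4 h with resazurin, following 24 h compound treatment of FGFR3-transfected Ba/F3 cells at 37 °C. Counterscreen run identically with 10 ng/ml murine IL3 added.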

[3] = system: Ba/F3-Flt3-transfected cells in the presence of 10 ng/ml murine IL3; assay: Ba/F3-Flt3 (plus IL3) cellular proliferation counterscreen, Alamar Blue; assay type: cell-based; conditions: Mus musculus; plus 10 ng/ml murine IL3; read-out: BAF3-FLT3 (PLUS IL3) 384 well pIC50 (converted)

FGFR1 (h), sequence (P11362 22-822): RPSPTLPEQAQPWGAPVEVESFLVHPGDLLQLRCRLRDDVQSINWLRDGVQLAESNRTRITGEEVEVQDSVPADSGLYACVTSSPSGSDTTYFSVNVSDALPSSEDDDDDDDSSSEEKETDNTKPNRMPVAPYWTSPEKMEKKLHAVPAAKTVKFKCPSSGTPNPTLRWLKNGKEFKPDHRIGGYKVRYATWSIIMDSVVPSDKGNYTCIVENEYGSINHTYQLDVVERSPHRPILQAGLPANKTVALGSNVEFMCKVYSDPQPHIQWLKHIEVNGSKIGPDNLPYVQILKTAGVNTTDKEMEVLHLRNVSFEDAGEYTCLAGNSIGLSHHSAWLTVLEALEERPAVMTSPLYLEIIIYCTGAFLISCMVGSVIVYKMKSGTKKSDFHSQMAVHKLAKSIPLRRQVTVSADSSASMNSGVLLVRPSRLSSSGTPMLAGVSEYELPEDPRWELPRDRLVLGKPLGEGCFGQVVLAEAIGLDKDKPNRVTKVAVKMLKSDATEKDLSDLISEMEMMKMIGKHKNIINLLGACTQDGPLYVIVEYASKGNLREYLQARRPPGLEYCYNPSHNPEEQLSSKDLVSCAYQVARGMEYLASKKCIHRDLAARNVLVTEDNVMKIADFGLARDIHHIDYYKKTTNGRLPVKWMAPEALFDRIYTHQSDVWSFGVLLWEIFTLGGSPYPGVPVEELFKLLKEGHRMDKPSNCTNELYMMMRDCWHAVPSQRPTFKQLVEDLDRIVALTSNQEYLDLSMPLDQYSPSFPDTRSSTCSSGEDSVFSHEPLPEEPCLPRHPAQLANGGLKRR

IC50 (FGFR1 (h)) [µM]	BAF3-FGFR 3 (MIN IL3) 384 well pIC50 [2]	melting point [°C]	SMILES	IC50 [1] [µM]	IC50 [3] [µM]
0.0195	5.64	121	COc1cc(OC)cc(N(CCNC(C)C)c2ccc3ncc(C(=O)NCCCN4CCCCC4)nc3c2)c1 [Compound 182]	> 10	> 10
0.155	7.1	141	COc1cc(OC)cc(N(CC#Cc2ncccc2OC)c2ccc3ncc(-c4cccnc4)nc3c2)c1 [Compound 183]	> 10	> 10
0.141	5.27	227	COc1cc(OC)cc(N(CCO)c2ccc3ncc(C(=O)Nc4cnn(C)c4)nc3c2)c1 [Compound 184]	> 10	> 10
